# How the values were obtained:
# Type in all cases: physicochemical
# [1] = Dynamic vapor sorption (DVS) with XRPD of the post-DVS sample; conditions: for solid form by XRPD after the DVS experiment: post DVS sample
# Experimental: Samples were analyzed using an Aquadyne DVS-2 gravimetric water sorption analyzer. The relative humidity was adjusted between 2-95% and the weight of the sample was continuously monitored and recorded.
# […]: β-GPA maleate (1:1) Form II, β-GPA fumarate (1:1), β-GPA maleate (2:1), β-GPA succinate (2:1) and β-GPA oxalate (1:1) were analyzed by DVS experiment followed by XRPD analysis of the sample at the end of the experiment.
# Sample 2162-64-1 was analyzed by DVS in triplicate and the post DVS samples were characterized by XRPD to identify the form at the end of the experiment.
# [2] = Bulk and tapped density
# Experimental: The bulk density of β-GPA oxalate (Pattern 18 B), succinate (Pattern 15A), and fumarate (Pattern 7A) were determined by pouring in a known amount of salt (g) into a measuring cylinder. The volume (Vi) occupied by the salt was recorded and the bulk density (ρB) was determined using equation 1. ρB=g/Vi (1)
# The tapped densities of the salts were determined using a Tap density analyzer. A known amount of salt was poured (g) into a measuring cylinder and the initial volume was recorded and tapped using a Tap density analyzer. The final volume (Vf) after tapping was recorded and the tapped density (ρT) was calculated by using equation 2. ρT=g/Vf (2)
# [3] = Carr's index and Hausner ratio (predicted flowability)
# Excerpt: The flow properties of β-GPA are sub-optimal. The bulk density is 0.389 g/cc and the tapped density is 0.627 g/cc. These measurements can be used to calculate the Carr's index and Hausner ratio for a substance. The Carr's index and Hausner ratio are indicators of flowability of a powder. As known in the art, e.g., as described in Carr R. L. Chem. Eng. 1965, 72, 163-168, the relationship to flowability of a powder to the Carr's index and Hausner ratio is based on the scale shown in Table 6 below.
# Carr's index or Carr's compressibility index (C) is an indication of the compressibility of a powder. It can be calculated using the equation below: Carr's index (C)=100(Vi−Vf)/Vi (3) A Carr's index greater than 25 is considered to be an indication of poor flowability while a value below 15 is an indication of good flowability.
# The Hausner ratio is a number that is correlated to the flowability of a powder or granular material. It is calculated by using the equation below: Hausner ratio=Vi/Vf (4)
# [4] = Flowability measurement using Hanson Flodex unit
# Excerpt: Method: A cylindrical vessel is secured to the stand and above that a funnel is also secured such that the bottom of the funnel is close to the vessel. A powder load of ≈50-60 g is then poured through the funnel into the middle of the cylinder. The lever device is pulled to open the hole in the disk quickly and without vibration. If a powder slowly flows through the small-diameter holes, leaving a cavity shaped like an upside-down, truncated cone, the test is considered positive. If a powder flocculates in bulk and falls abruptly, forming a cylindrical cavity, the test is considered negative. […] If the experiment is negative, the powder is tested again with a disk having a larger hole.
# [5] = Solid form stability of 2:1 β-GPA fumarate at various temperature/humidity conditions (XRPD); conditions: for XRPD: a week
# Experimental: The solid form stability of β-GPA fumarate was studied at various temperature/humidity conditions as listed in Table 23 for a week using saturated salt solution chambers. The samples were analyzed by XRPD after a week.
# [6] = Gravimetric solubility of 2:1 β-GPA fumarate in solvents
# Experimental: Solubility of β-GPA fumarate was measured gravimetrically in fifteen different solvents and solvent mixtures at 15 and 45° C. About 100 mg of the compound was dispensed in ten volumes (1 mL) of the solvent/solvent mixture and slurried for 48 hours. Table 24 represents the solubility of β-GPA fumarate in different solvents. After 48 hours the vials were centrifuged. The supernatant was collected and left for slow evaporation under vacuum at 45° C. and solubility was determined. The solids obtained after centrifugation and evaporation were analyzed by XRPD.
# [7] = Temperature cycling experiments of 2:1 β-GPA fumarate
# Experimental: The following (Table 26) experiments were performed to isolate possible polymorphic forms of 2:1 β-GPA fumarate.
# [8] = Carr's index and Hausner ratio (predicted flowability); conditions: Table 18, scale of Table 17
# [9] = calculated from bulk and tapped volumes
smiles,measurement,setting,value
N=C(N)NCCC(=O)O.N=C(N)NCCC(=O)O.O=C(O)/C=C/C(=O)O [β-GPA fumarate (2:1)],moisture uptake during the DVS experiment,[1],less than 0.1%
same,solid form by XRPD after the DVS experiment,[1]; listed as 2:1 fumarate salt,did not exhibit any dissociation of the salt
same,solid form by XRPD after the DVS experiment,[1]; listed as 2162-64-1,identical to β-GPA fumarate (Pattern 7A)
same,Bulk density,[2],0.576 g/cc
same,Tapped density,[2],0.613 g/cc
same,Carr's index,[3]; [9],5.9
same,Hausner ratio,[3]; [9],1.063
same,Flow character,"[3]; predicted, scale of Table 6 (Carr's index)",Excellent (1-10)
same,Did solid pass?,[4]; Disc pore size 4 mm,No
same,Did solid pass?,[4]; Disc pore size 5 mm,Yes
same,Did solid pass?,[4]; Disc pore size 6 mm,Yes
same,Did solid pass?,[4]; Disc pore size 12 mm,Yes
same,XRPD,"[5]; 20° C., 43% relative humidity",Pattern 7A
same,XRPD,"[5]; 20° C., 59% relative humidity",Pattern 7A
same,XRPD,"[5]; 20° C., 73% relative humidity",Pattern 7A
same,XRPD,"[5]; 20° C., >95% relative humidity",Pattern 7A
same,XRPD,"[5]; 40° C., 82% relative humidity",Pattern 7A
same,XRPD,"[5]; 60° C., 50% relative humidity",Pattern 7A
same,XRPD,"[5]; 60° C., 80% relative humidity",Pattern 7A
same,solid form stability,[5]; RH >95% at 20° C.,stable
same,XRPD pattern,"[5]; RH >95% at room temperature, 48 hours",retain its original XRPD pattern (Pattern 7A)
same,Solubility,"[6]; Acetone, 15° C.",<1000 µg/mL
same,Solubility,"[6]; Acetone, 45° C.",<1000 µg/mL
same,Solubility,"[6]; Acetone:H2O (9:1), 15° C.",2500 µg/mL
same,Solubility,"[6]; Acetone:H2O (9:1), 45° C.",4100 µg/mL
same,Solubility,"[6]; DCM, 15° C.",<1000 µg/mL
same,Solubility,"[6]; DCM, 45° C.",500 µg/mL
same,Solubility,"[6]; EtOAc, 15° C.",<1000 µg/mL
same,Solubility,"[6]; EtOAc, 45° C.",<1000 µg/mL
same,Solubility,"[6]; EtOH, 15° C.",<1000 µg/mL
same,Solubility,"[6]; EtOH, 45° C.",<1000 µg/mL
same,Solubility,"[6]; H2O:MeOH:IPA (3:5.5:5), 15° C.",<1000 µg/mL
same,Solubility,"[6]; H2O:MeOH:IPA (3:5.5:5), 45° C.",<1000 µg/mL
same,Solubility,"[6]; Heptane, 15° C.",<1000 µg/mL
same,Solubility,"[6]; Heptane, 45° C.",<1000 µg/mL
same,Solubility,"[6]; IPA, 15° C.",<1000 µg/mL
same,Solubility,"[6]; IPA, 45° C.",<1000 µg/mL
same,Solubility,"[6]; IPA:H2O (9:1), 15° C.",1640 µg/mL
same,Solubility,"[6]; IPA:H2O (9:1), 45° C.",2100 µg/mL
same,Solubility,"[6]; MeCN, 15° C.",<1000 µg/mL
same,Solubility,"[6]; MeCN, 45° C.",<1000 µg/mL
same,Solubility,"[6]; MeOH, 15° C.",~1000 µg/mL
same,Solubility,"[6]; MeOH, 45° C.",2730 µg/mL
same,Solubility,"[6]; MeOH:H2O (9:1), 15° C.",9200 µg/mL
same,Solubility,"[6]; MeOH:H2O (9:1), 45° C.",11200 µg/mL
same,Solubility,"[6]; TBME, 15° C.",3000 µg/mL
same,Solubility,"[6]; TBME, 45° C.",28900 µg/mL
same,Solubility,"[6]; THF:H2O (9:1), 15° C.",2080 µg/mL
same,Solubility,"[6]; THF:H2O (9:1), 45° C.",4120 µg/mL
same,Solubility,"[6]; Water, 15° C.",30000 µg/mL
same,Solubility,"[6]; Water, 45° C.",>100000 µg/mL
same,XRPD analysis of the precipitates after 48 hours slurries,[6]; fifteen solvents and solvent mixtures at 15 and 45° C.,no form transformations
same,Result (XRPD),"[7]; 50° C. 2 hours, RT, 50° C. 48 hours",Pattern 7A
same,Result (XRPD),"[7]; dry ice-acetone 30 minutes, RT",Pattern 7A
same,Result (XRPD),"[7]; heated to 150° C. and brought to room temperature, cycle repeated three times",Pattern 7A
same,Result (XRPD),"[7]; vacuum oven 130° C. 2 hours, RT, 130° C. 48 hours",Pattern 7A
same,Flow character,[8],Excellent (1-10)
